Calls of active or inactive are those of the source. No cut-off for these calls is given here.
Assays:
Format in all cases: functional, organism-based
[1] = tested on: Plasmodium falciparum; assay: In vitro inhibition of multidrug-resistant Plasmodium falciparum K1
[2] = tested on: Plasmodium falciparum; assay: In vitro inhibition of multidrug-resistant Plasmodium falciparum K1; […]
[3] = tested on: Mus musculus; assay: In vivo antimalarial activity against Plasmodium chabaudi in BALB/c mice (Mus musculus) at a dose of 0.25 mg/kg; active; design: dose 0.25 mg/kg

Structure (SMILES) | IC50 [1] [µg/mL] | IC50 [2] [µg/mL] | Activity [3]
COc1ccc2cc3[n+](cc2c1OC)CCc1cc2c(cc1-3)OCO2.[Cl-] [BERBERINE CHLORIDE] | 0.36 | – | –
COc1cc2c(cc1OC)-c1cc3c(OC)c(OC)ccc3c[n+]1CC2.[Cl-] | – | 0.8 | –
COc1cc2c(cc1OC)-c1cc3cc(OC)c(OC)cc3c[n+]1CC2.[Cl-] | – | 0.8 | Active
COc1cc2c(cc1OC)-c1c(N)c3cc(OC)c(OC)cc3c[n+]1CC2.[Cl-] | – | 0.8 | Active

Source: ChEMBL document CHEMBL1152011, “The first protoberberine alkaloid analogue with in vivo antimalarial activity” (Bioorg Med Chem Lett, 1994)
